# Columns and labels:
# BRAF = BRAF (Homo sapiens, UniProt P15056); assay: Enzyme selectivity panel; assay type: biochemical; settings: 1 mM ATP
# Experimental: (§2) The kinase assays were carried out at room temperature in HEPES 50 mM, pH 7.0, NaN3 0.02%, BSA 0.01%, Orthovanadate 0.1 mM, DTT 1 mM, MgCl2 10 mM in a final volume of 10 µL. Test compounds were transferred to the plate wells by ECHO liquid handler (Labcyte, San Jose, CA) with 0.5% dimethyl sulfoxide (DMSO) in the final assay. Peptide/kinase mixtures were diluted in the appropriate enzymatic buffer and 5µL of the mixture was added to a 384-well small volume black plate. Reactions were initiated by the addition of 5 µL ATP in reaction buffer, the final reaction mixture consisted of 500 nM peptide substrate, 1 mM ATP, and appropriate amount of specific kinase. […] The plates were then sealed and centrifuged at 1800 rpm for 2 minutes. […] Half maximal inhibitory concentration (IC50) determination was performed by fitting the curve of percent control activity versus the log of the compound concentration using the GraphPad Prism 6.0 software.
# DMS-114 (lung cancer) = assay: Cell viability assay (CellTiter-Glo); assay type: cell-based; settings: Homo sapiens, FGFR1 amplification, 72 hours, read-out: Mean GI50 ± S.D.
# [1] = tested on: b-FGF induced growth of human umbilical vein endothelial cells (HUVEC); assay: HUVEC proliferation stimulated with b-FGF; assay type: cell-based; settings: read-out: IC50 for b-FGF induced growth
# hERG potassium current = molecular target: T1, hERG potassium current (Homo sapiens, UniProt Q12809); assay: hERG potassium current (ChanTest); assay type: cell-based; settings: estimated; precise IC50 not calculated due to compound insolubility; data provided by ChanTest; read-out: IC50 for the inhibitory effect on hERG potassium current
# T1 construct: ChanTest Corporation, Cleveland, OH
# MAPKAPK2 = MAPKAPK2 (Homo sapiens, UniProt P49137); assay: Enzyme selectivity panel; assay type: biochemical; settings: 1 mM ATP
# Experimental: as §2
# STK4 = STK4 (Homo sapiens, UniProt Q13043); assay: Enzyme selectivity panel; assay type: biochemical; settings: 1 mM ATP
# Experimental: as §2
# FLT3 = FLT3 (Homo sapiens, UniProt P36888); assay: Enzyme selectivity panel; assay type: biochemical; settings: 1 mM ATP
# Experimental: as §2
# CAMK2D = CAMK2D (Homo sapiens, UniProt Q13557); assay: Enzyme selectivity panel; assay type: biochemical; settings: 1 mM ATP
# Experimental: as §2
# [2] = tested on: VEGF-induced growth of human umbilical vein endothelial cells (HUVEC); assay: HUVEC proliferation stimulated with VEGF; assay type: cell-based
# Source text: S2 Figure. […] Directly. An assay was developed to evaluate the proliferation of human umbilical vein endothelial cells (HUVEC) when stimulated with basic FGF (b-FGF) or VEGF.
# J82 = assay: Cell viability assay (CellTiter-Glo); assay type: cell-based; settings: Homo sapiens, Bladder, lacking FGFR alterations
# GSK3B = molecular target: T2, GSK3B (Homo sapiens, UniProt P49841); assay: Enzyme selectivity panel; assay type: biochemical; settings: 1 mM ATP
# T2 construct: purchased In-house HTRF panel (56 kinases) and PerkinElmer (161-kinase panel)
# Experimental: as §2
# CDK2 = CDK2 (Homo sapiens, UniProt P24941); assay: Enzyme selectivity panel; assay type: biochemical; settings: 1 mM ATP
# Experimental: as §2
# [3] = tested on: KATO III (gastric cancer); assay: Cell viability assay (CellTiter-Glo); assay type: cell-based; settings: Homo sapiens, FGFR2 amplification, 72 hours, read-out: Mean GI50 ± S.D.
# [4] = tested on: RT-112 (FGFR3-TACC3 fusion positive) bladder carcinoma model; assay: RT-112 xenograft efficacy; assay type: in vivo, Rowett Nude rats; settings: oral, 14 days
# Experimental: The inoculation of 0.5 mL was performed subcutaneously on the flank. The treatment of tumor bearing rats was started 8 days after tumor inoculation.
# [5] = tested on: myeloid/lymphoid neoplasm expressing CEP110-FGFR1; parameters: method as in PMID 29767670; settings: single patient, CEP110-FGFR1 fusion ref 40; cited from earlier work
# H1581 (lung cancer) = assay: Cell viability assay (CellTiter-Glo); assay type: cell-based; settings: Homo sapiens, NCI-H1581; FGFR1 amplification; 72 hours; read-out: Mean GI50 ± S.D.
# IKKA = IKKA (Homo sapiens, UniProt O15111); assay: Enzyme selectivity panel; assay type: biochemical; settings: 1 mM ATP
# Experimental: as §2
# FAK = FAK (Homo sapiens, UniProt Q05397); assay: Enzyme selectivity panel; assay type: biochemical; settings: 1 mM ATP
# Experimental: as §2
# MAP3K8 = MAP3K8 (Homo sapiens, UniProt P41279); assay: Enzyme selectivity panel; assay type: biochemical; settings: 1 mM ATP
# Experimental: as §2
# SGK1 = molecular target: T3, SGK1 (Homo sapiens, UniProt O00141); assay: Enzyme selectivity panel; assay type: biochemical; settings: 1 mM ATP
# T3 construct: purchased In-house HTRF panel (56 kinases) and PerkinElmer (161-kinase panel)
# Experimental: as §2
# HIPK3 = HIPK3 (Homo sapiens, UniProt Q9H422); assay: Enzyme selectivity panel; assay type: biochemical; settings: 1 mM ATP
# Experimental: as §2
# RET = RET (Homo sapiens, UniProt P07949); assay: Enzyme selectivity panel; assay type: biochemical; settings: 1 mM ATP
# Experimental: as §2
# [6] = Plasma protein binding (equilibrium dialysis); assay type: in vitro ADME, cynomolgus monkey; settings: pH 7.4, monkey plasma, read-out: PPB (% free)
# Experimental: The final DMSO content in all cases was <0.1%. Each condition was incubated in duplicate. For protein binding determination, the Multi-Equilibrium Dialyzer System™ and diachema membranes from Harvard Apparatus (Holliston, MA) were utilized. Equilibrium dialysis was carried out in Teflon cells separated by a dialysis membrane with a molecular weight cutoff of 10,000 Daltons. […] The cells were rotated at a speed of 12 rpm in a 37°C water bath for 2 hours. Following the incubation period, buffer and serum/plasma samples were drained separately into empty preweighed glass test tubes. The tubes were reweighed, and the exact volume of sample recovered from each side of the dialysis cell was calculated using the mass. A 75-μL aliquot of each sample (buffer or serum/plasma) was added to a 96-well plate containing a protein precipitation solution of 100% methanol and 0.2 μM dextrorphan as the internal standard; 75 μL of blank buffer or plasma/serum was added to the plate to ensure identical composition across all samples. Prior to analysis, samples prepared in the 96-well plate were vigorously vortexed for approximately 5 minutes and centrifuged for 10 minutes at ~1700 × g to remove denatured proteins and particulate matter. The supernatant was transferred and analyzed using LC-MS/MS.
# KMS12BM = assay: Cell viability assay (CellTiter-Glo); assay type: cell-based; settings: Homo sapiens, KMS-12-BM; Myeloma; lacking FGFR alterations
# Caco-2 cell monolayers = assay: Caco-2 permeability; assay type: in vitro ADME; settings: A–B at 50 μM
# Experimental: (§1) The Caco-2 monolayers were incubated at 37°C, with ambient humidity, and CO2 for the duration of the transport assay. […] The apical volume was 0.2 mL and the basolateral volume was 0.6 mL. The incubation period was 120 minutes. At the end of the incubation period, 0.1 mL of sample was removed from the receiver side and an equal volume of acetonitrile was added for protein precipitation. After centrifugation, the supernatants were collected for analysis. Nadolol and metoprolol were included as low and high permeability comparators, respectively. Trans-epithelial electrical resistance was measured to ensure the integrity of the cell monolayers. Caco-2 cell monolayers with trans-epithelial electrical resistance values ≥300 Ω•cm2 were used for transport experiments.
# Caco-2 permeability = assay type: in vitro ADME; settings: human, Caco-2; A–B at 50 μM
# Experimental: as §1
# ZAP70 = ZAP70 (Homo sapiens, UniProt P43403); assay: Enzyme selectivity panel; assay type: biochemical; settings: 1 mM ATP
# Experimental: as §2
# UMUC3 = assay: Cell viability assay (CellTiter-Glo); assay type: cell-based; settings: Homo sapiens, Bladder, lacking FGFR alterations
# Sequence of HIPK3 (Q9H422 whole entry, species assumed): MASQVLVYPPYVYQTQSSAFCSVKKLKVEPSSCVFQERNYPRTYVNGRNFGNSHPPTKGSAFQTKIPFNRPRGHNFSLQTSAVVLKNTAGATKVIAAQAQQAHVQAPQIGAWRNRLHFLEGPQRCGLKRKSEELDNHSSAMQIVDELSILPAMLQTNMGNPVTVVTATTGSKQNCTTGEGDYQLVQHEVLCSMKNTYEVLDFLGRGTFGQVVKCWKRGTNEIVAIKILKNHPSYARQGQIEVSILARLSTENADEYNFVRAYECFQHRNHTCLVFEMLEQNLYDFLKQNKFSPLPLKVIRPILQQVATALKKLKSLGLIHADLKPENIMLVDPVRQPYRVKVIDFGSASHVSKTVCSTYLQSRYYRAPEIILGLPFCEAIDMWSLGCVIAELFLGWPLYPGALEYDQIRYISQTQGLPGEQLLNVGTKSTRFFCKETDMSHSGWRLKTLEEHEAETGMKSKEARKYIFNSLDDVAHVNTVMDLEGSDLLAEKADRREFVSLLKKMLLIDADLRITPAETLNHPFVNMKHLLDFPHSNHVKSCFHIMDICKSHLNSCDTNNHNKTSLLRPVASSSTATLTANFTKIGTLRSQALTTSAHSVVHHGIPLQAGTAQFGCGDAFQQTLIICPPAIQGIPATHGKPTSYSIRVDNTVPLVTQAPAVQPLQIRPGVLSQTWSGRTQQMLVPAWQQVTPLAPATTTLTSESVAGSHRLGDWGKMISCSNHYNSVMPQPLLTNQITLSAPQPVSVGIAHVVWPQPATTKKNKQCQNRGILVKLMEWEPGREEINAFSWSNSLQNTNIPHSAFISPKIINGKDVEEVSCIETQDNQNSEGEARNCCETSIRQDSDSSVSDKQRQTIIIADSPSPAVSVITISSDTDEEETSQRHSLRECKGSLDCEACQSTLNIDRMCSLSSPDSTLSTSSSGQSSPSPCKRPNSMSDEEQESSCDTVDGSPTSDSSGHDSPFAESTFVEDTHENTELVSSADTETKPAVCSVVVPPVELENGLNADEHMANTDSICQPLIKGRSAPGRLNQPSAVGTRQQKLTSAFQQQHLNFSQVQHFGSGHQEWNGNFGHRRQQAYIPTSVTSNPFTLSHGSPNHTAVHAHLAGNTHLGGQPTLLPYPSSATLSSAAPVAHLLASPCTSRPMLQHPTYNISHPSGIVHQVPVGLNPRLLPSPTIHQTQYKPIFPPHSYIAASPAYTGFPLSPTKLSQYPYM
# Sequence of ZAP70 (P43403 whole entry, species assumed): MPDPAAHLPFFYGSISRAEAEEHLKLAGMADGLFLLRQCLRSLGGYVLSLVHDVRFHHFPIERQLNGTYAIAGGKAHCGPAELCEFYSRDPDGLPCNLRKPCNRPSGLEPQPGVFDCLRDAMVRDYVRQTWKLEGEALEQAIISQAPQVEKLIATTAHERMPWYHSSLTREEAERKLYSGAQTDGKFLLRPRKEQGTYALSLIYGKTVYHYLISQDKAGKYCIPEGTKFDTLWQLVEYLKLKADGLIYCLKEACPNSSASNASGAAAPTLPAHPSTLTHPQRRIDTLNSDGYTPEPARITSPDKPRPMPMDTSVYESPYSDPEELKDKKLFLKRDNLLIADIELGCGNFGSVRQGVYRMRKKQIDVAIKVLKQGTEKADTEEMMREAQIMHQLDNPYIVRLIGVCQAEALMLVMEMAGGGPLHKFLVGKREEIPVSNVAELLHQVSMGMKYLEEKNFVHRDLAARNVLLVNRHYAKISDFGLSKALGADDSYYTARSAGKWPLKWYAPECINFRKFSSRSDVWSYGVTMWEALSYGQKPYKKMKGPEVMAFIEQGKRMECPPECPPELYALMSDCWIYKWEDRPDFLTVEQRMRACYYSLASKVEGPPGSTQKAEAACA
# Sequence of STK4 (Q13043 whole entry, species assumed): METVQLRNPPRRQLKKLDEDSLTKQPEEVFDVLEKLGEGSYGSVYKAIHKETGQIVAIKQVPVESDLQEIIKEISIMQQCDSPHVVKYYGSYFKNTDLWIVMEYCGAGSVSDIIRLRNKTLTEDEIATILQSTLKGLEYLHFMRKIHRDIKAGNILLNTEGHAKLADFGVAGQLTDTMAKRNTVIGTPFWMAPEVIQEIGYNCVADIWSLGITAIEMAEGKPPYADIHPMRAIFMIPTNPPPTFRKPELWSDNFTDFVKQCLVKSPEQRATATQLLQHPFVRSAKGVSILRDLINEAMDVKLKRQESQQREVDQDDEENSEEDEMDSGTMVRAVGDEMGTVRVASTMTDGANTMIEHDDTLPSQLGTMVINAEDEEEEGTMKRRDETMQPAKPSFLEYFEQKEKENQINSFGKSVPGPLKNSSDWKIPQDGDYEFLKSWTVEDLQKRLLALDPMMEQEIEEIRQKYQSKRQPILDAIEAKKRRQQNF
# Sequence of IKKA (O15111 whole entry, species assumed): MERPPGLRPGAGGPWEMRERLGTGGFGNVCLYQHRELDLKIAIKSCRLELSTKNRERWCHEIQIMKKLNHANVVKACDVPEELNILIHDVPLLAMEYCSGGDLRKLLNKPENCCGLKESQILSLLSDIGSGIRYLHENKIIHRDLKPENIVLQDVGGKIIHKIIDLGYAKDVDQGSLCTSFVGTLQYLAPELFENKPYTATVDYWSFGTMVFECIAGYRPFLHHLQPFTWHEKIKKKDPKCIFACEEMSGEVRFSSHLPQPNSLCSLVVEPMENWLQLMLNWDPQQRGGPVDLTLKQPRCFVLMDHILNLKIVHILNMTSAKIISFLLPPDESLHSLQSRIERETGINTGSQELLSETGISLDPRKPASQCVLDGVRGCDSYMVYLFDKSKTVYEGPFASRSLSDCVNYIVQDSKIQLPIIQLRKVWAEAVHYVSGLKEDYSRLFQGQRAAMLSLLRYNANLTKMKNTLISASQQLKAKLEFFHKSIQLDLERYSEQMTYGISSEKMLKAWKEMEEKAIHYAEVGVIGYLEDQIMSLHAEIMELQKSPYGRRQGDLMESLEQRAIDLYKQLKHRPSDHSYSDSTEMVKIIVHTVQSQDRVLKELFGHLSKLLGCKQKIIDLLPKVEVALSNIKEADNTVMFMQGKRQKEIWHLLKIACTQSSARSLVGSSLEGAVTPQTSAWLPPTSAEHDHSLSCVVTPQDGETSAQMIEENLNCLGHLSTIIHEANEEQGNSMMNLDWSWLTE
# Sequence of RET (P07949 29-1114, species assumed): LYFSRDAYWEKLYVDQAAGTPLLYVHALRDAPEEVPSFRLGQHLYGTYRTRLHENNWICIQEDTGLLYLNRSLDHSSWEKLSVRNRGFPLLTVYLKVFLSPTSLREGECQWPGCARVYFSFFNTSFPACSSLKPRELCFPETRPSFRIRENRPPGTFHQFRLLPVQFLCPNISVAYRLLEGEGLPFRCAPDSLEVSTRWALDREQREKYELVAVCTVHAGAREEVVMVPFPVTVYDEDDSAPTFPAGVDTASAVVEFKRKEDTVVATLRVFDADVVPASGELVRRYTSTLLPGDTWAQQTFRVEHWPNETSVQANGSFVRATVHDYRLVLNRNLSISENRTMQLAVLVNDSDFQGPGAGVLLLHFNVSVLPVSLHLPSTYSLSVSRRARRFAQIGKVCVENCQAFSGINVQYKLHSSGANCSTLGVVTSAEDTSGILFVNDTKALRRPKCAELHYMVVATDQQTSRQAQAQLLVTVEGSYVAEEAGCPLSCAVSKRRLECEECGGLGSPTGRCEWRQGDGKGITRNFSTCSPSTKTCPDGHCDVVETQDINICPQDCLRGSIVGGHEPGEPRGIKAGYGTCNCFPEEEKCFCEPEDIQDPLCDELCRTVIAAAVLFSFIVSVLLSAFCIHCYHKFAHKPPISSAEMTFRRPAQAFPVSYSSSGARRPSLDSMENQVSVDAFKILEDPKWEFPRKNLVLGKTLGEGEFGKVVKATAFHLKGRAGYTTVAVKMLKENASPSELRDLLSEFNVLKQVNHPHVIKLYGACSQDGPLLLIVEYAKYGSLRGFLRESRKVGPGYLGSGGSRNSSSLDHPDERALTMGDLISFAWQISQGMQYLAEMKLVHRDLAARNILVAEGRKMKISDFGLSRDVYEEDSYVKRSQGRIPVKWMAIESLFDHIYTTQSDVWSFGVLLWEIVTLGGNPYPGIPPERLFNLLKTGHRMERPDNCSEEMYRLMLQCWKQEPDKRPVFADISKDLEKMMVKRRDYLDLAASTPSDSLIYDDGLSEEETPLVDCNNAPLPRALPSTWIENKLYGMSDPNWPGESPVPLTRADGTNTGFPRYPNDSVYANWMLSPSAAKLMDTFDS
# Sequence of BRAF (P15056 whole entry, species assumed): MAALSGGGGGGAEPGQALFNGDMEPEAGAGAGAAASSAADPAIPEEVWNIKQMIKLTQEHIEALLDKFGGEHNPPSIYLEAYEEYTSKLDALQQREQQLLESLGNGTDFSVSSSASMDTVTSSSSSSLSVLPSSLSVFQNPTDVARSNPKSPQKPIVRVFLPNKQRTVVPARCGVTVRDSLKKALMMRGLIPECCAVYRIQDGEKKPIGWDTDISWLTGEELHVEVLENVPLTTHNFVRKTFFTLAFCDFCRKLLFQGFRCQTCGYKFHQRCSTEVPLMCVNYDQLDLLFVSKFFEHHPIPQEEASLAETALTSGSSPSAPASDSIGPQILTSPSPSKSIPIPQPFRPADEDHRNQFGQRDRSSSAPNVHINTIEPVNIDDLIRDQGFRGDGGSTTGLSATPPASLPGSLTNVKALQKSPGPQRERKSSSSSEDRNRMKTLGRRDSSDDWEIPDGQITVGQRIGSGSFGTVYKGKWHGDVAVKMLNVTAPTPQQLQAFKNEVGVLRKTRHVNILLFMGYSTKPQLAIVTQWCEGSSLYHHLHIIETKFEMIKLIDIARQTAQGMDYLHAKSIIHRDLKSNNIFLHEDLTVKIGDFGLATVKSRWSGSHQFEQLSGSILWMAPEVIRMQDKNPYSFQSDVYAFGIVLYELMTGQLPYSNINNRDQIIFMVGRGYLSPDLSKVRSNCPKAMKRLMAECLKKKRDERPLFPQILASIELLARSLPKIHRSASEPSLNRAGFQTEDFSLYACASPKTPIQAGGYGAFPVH
compound,measurement,setting,value
"CCN1C(=O)N(c2c(F)c(OC)cc(OC)c2F)Cc2cnc3[nH]c(CN4CCOCC4)cc3c21 [INCB054828, pemigatinib]",IC50,BRAF,> 10 µM
same,GI50,DMS-114 (lung cancer),0.027 µM
same,IC50,[1],0.0082 µM
same,IC50,hERG potassium current,> 8 µM
same,IC50,MAPKAPK2,> 10 µM
same,IC50,STK4,> 10 µM
same,IC50,FLT3,> 10 µM
same,IC50,CAMK2D,> 10 µM
same,IC50,[2],0.801 µM
same,GI50,J82,> 5 µM
same,IC50,GSK3B,> 10 µM
same,IC50,CDK2,> 10 µM
same,GI50,[3],0.003 ± 0.001 µM
same,tumor growth inhibition,[4]; 0.3 mg/kg once daily,significant tumor growth inhibition
same,tumor growth inhibition,[4]; 1 mg/kg once daily,significant tumor growth inhibition
same,clinical response,[5],complete cytogenetic and hematologic remission
same,GI50,H1581 (lung cancer),0.014 ± 0.009 µM
same,IC50,IKKA,> 10 µM
same,IC50,FAK,> 10 µM
same,IC50,MAP3K8,> 10 µM
same,IC50,SGK1,> 10 µM
same,IC50,HIPK3,> 10 µM
same,IC50,RET,> 10 µM
same,"fraction unbound at 2 h, 1 μM",[6],0.082
same,GI50,KMS12BM,2.89 µM
same,Caco-2 Papp,Caco-2 cell monolayers,moderate to high permeability
same,"Papp at 120 min, 50 μM",Caco-2 permeability,11 ×10⁻⁶ cm/s
same,IC50,ZAP70,> 10 µM
same,GI50,UMUC3,> 5 µM
